In one data set the target is T1, ALDH1A1 (Homo sapiens, UniProt P00352).
T1 sequence (P00352 1-501): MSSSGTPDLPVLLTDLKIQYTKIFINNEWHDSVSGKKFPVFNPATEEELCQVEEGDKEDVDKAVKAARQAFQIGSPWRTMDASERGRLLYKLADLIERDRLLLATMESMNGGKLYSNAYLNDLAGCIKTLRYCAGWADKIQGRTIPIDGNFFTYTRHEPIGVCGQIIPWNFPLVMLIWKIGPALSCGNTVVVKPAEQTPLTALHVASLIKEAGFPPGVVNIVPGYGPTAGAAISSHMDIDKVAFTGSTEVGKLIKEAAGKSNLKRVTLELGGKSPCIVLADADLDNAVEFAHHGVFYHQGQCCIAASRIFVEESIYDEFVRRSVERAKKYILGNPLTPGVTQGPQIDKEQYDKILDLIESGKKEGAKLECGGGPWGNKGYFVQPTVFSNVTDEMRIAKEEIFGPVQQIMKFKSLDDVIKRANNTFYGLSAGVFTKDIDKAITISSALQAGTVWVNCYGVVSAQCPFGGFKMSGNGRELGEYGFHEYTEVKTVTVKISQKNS
The data set can be described thus: ALDH1A1 inhibition, propionaldehyde as substrate. It counts as biochemical. The following applies: up to 250 μM.

The target of another data set is T2, ALDH1A2 (Homo sapiens, UniProt O94788).
T2 sequence (O94788 1-518): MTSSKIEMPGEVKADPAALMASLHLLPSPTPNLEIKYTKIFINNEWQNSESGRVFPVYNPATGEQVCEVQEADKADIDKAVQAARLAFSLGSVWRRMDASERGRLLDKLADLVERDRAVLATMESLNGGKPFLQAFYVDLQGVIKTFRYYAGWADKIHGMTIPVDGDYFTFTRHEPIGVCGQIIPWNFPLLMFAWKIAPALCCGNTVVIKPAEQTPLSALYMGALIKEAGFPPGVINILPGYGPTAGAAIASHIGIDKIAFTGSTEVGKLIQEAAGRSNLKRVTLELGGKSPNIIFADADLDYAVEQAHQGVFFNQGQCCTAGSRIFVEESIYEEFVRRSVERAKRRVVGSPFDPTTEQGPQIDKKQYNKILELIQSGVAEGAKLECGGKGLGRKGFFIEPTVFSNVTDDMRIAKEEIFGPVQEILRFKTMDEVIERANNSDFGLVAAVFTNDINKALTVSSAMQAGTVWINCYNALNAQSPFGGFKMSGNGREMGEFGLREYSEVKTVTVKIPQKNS
The experiment in a line: ALDH1A2 activity assay, propionaldehyde/NAD+. Particulars: up to 250 μM. It counts as biochemical.

A further data set has as its target T3, ALDH1A3 (Homo sapiens, UniProt P47895).
T3 sequence (P47895 1-512): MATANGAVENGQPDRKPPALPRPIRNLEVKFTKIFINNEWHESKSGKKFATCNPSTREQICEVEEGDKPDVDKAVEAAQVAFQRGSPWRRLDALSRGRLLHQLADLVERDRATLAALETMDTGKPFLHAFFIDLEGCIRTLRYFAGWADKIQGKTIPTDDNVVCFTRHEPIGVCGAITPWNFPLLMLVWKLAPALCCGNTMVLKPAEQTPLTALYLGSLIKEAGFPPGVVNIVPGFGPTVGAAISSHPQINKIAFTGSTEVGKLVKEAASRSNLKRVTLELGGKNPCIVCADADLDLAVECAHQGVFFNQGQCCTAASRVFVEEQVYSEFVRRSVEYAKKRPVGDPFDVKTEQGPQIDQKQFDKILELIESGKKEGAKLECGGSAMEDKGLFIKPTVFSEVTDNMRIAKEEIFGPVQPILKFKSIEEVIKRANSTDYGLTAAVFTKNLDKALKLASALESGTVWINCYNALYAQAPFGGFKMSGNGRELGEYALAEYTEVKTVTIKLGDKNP
The data set can be described thus: ALDH1A3 activity assay, propionaldehyde/NAD+. The following applies: up to 250 μM. The format is biochemical.

Another data set has as its target T4, ALDH1B1 (Homo sapiens, UniProt P30837).
T4 sequence (P30837 18-517): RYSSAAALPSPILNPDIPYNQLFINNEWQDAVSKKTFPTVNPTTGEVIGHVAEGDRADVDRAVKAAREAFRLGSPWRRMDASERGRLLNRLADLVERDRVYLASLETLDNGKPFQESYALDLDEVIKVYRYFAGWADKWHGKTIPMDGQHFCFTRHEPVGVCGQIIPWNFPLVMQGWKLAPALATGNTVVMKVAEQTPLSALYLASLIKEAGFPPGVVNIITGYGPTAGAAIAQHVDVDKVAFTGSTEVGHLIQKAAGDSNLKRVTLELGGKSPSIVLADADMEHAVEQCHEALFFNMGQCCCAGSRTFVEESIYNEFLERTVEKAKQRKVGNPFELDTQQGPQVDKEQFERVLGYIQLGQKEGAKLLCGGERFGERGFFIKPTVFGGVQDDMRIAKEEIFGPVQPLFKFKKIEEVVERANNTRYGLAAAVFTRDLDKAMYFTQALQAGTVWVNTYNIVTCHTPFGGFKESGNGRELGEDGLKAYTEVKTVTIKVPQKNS
The data set can be described thus: ALDH1B1 activity assay, propionaldehyde/NAD+. The format is biochemical. The following applies: up to 250 μM.

The target in another data set is T5, ALDH2 (Homo sapiens, UniProt P05091).
T5 sequence (P05091 18-517): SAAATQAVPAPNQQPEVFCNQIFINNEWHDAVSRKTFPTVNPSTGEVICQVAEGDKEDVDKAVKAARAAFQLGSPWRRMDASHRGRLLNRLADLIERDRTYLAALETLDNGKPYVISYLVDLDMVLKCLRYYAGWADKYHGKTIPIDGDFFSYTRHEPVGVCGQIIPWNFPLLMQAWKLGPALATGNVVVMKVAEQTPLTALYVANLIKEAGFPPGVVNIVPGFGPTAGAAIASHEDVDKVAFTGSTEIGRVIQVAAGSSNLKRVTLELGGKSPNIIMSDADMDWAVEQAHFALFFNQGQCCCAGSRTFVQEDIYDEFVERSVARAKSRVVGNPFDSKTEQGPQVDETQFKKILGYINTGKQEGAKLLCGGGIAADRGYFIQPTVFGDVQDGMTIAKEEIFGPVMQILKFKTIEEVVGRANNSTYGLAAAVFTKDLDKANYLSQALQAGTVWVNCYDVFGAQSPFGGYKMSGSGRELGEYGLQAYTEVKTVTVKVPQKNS
The experiment in a line: ALDH2 inhibition, propionaldehyde as substrate. It counts as biochemical. The following applies: up to 250 μM.

Data set [1] concerns the target T6, ALDH3A1 (Homo sapiens, UniProt P30838).
T6 sequence (P30838 1-453): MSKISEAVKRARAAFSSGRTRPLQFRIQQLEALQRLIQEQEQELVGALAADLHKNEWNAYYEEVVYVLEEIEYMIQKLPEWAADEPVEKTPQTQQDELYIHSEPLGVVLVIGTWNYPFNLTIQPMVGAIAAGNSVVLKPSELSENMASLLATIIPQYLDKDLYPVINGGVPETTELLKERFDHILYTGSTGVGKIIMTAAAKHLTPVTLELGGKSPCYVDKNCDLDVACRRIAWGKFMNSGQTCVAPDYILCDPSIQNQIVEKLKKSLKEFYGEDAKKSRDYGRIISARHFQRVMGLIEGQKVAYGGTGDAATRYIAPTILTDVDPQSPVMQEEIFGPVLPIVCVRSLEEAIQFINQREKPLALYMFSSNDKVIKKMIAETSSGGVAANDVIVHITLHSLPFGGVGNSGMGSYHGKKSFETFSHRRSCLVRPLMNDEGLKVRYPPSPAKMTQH
The data set can be described thus: Steady-state kinetics, mode of inhibition of ALDH3A1. It counts as biochemical.

Data set [2] addresses T7, ALDH3A1 activity in A549 cell lysates (Homo sapiens, UniProt P30838).
T7 sequence (P30838 1-453): T6 sequence (P30838 1-453)
The experiment in a line: Cell lysate ALDH3A1 activity in presence and absence of CB29, A549. The format is biochemical. The following applies: 50 μM CB29, […] NADP+, 1 mM benzaldehyde.

The target of data set [3] is T8, ALDH3A1 activity in SF767 cell lysates (Homo sapiens, UniProt P30838).
T8 sequence (P30838 1-453): T6 sequence (P30838 1-453)
The experiment in a line: Cell lysate ALDH3A1 activity in presence and absence of CB29, SF767. Particulars: 50 μM CB29, […] NADP+, 1 mM benzaldehyde. The format is biochemical.

In data set [4] the target is T6, ALDH3A1. The experiment in a line: Recombinant ALDH3A1 activity in presence and absence of CB29. The format is biochemical. Particulars: 50 μM CB29, […] NADP+, 1 mM benzaldehyde.
Data set [5] in a line: Formation of homogeneous solution. It counts as physicochemical. Particulars: in the presence of […] DMSO.
A further data set deals with A549 cells. Particulars: 50 μM inhibitor alone, 19 hours, MTT, Figure 4A grey bars.
Another data set concerns CCD-13Lu cells. The experiment in a line: Colorimetric MTT assay for mafosfamide sensitivity, CCD-13Lu. Particulars: 19 hours, Figure 4C.

By Ki is commonly meant the equilibrium dissociation constant of an inhibitor or competing ligand from its target. A lower Ki goes with a stronger hold on the target. Regarding `CC(=O)Nc1ccc(Nc2ccc(S(C)(=O)=O)cc2[N+](=O)[O-])cc1` [CB29, N-[4-{(4-(methylsulfonyl)-2-nitrophenyl)-4-amino}-phenyl]-acetamide], the “inhibition toward ALDH1A1” value against ALDH1A1 is less than 5%. For the same compound, the “inhibition toward ALDH1A2” value on ALDH1A2 is less than 5%. The “inhibition toward ALDH1A3” value against ALDH1A3 is recorded as less than 5%. Besides, the “inhibition toward ALDH1B1” value on ALDH1B1 is on record as less than 5%. Further, the “inhibition toward ALDH2” value against ALDH2 is given as less than 5%. For the same compound, at ALDH3A1 [1] (competitive versus varied benzaldehyde, fixed NADP+ […], 10 nM ALDH3A1), the affinity, expressed as Ki, was 4 µM. Besides, the mode of inhibition entry at ALDH3A1 [1] (with respect to benzaldehyde) is “competitive”. In data set [2], the “decrease of ALDH3A1 activity in A549 cell lysate” value is on record as greater than 95%. Also, the “decrease of ALDH3A1 activity in SF767 cell lysate” value in data set [3] is recorded as greater than 90%. Moreover, the “decrease of activity of recombinant ALDH3A1” value at ALDH3A1 [4] is ~ 97%. In addition, the homogeneous solution formed in [5] is no less than 100 µM. Also, the “effect on cell proliferation as single agent, A549 (in words)” value in the data set on A549 cells was “little effect”. Besides, in the data set with SF767 cells (50 μM inhibitor + […] mafosfamide, 19 hours, MTT, p<0.005), the “increase in mafosfamide chemosensitivity, SF767” value was roughly 2 fold. Besides, the “effect on cell proliferation as single agent, SF767 (in words)” value with SF767 cells (50 μM inhibitor alone, 19 hours, MTT, Figure 4B grey bars) is recorded as “little effect”. For the same compound, the “decrease of ED50 value of mafosfamide in the presence of inhibitor, SF767” value with SF767 cells (inhibitor 50 μM, Figure 5B) is recorded as 1.6 fold. Also, the “ED50 of mafosfamide in the presence of inhibitor, SF767” value with SF767 cells (inhibitor 50 μM, mafosfamide 0-250 μM, MTT, Figure 5B) worked out at 92 ± 4 µM. Also, the “enhancement of mafosfamide sensitivity, CCD-13Lu (in words)” value in the data set with CCD-13Lu cells (50 μM inhibitor + 40 μM mafosfamide) was “did not show mafosfamide chemosensitivity”. For the same compound, the “cytotoxicity / proliferation with inhibitor alone, CCD-13Lu (in words)” value in the data set with CCD-13Lu cells (50 μM inhibitor) was “unaffected”.
